From patent US20240199618A1, “NOVEL N-ACYL-[3-SUBSTITUTED]-[8-SUBSTITUTED]-5,6-DIHYDRO-[1,2,4]TRIAZOLO[4,3-a]PYRAZINES AS SELECTIVE NK-3 RECEPTOR ANTAGONISTS, PHARMACEUTICAL COMPOSITION, METHODS FOR USE IN NK-3 RECEPTOR-MEDIATED DISORDERS” (Ogeda SA, priority 2013, published 2024) come the findings set out here.

Data set [1] addresses T1, human NK-3 receptor (Homo sapiens (Human), UniProt P29371). Description: 3H-SB222200 binding competition assay with human NK-3 receptor. In a few lines:
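Membranes from CHO cells stably expressing the receptor were incubated with 5 nM 3H-SB222200 and varying compound concentrations in HEPES 25 mM/NaCl 0.1 M/CaCl2 1 mM/MgCl2 5 mM/BSA 0.5%/saponin 10 μg/ml, pH 7.4. Bound radioligand was quantified as membrane-associated radioactivity after filtration.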

Data set [2] concerns the target T1, human NK-3 receptor. Put plainly: Aequorin functional assay with human NK-3 receptor (antagonist testing vs NKA). In kind it is cell-based. The note with it: CHO cells, NKA at EC80 (3 nM); read-out: Functional assay: Aequorin assay with human NK-3 receptor hNK-3-AEQ (antagonist IC50). In a few lines: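 CHO cells co-expressing human NK-3 receptor and apoaequorin were pre-incubated 3 min with compound, then challenged with NKA at EC80 (3 nM). Coelenterazine-dependent luminescence was integrated over 90 s, and antagonism was derived from concentration-dependent inhibition of the calcium response.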

Data set [3] concerns circulating levels of luteinizing hormone (LH). Put plainly: Castrated male rat model, circulating luteinizing hormone (LH). The class given is in vivo. Conditions: single oral dose less than or equal to 30 mg/kg, p<0.05. As to the method:
Castrated Male Rat Model to Assess the Effect of Compound of Invention on Circulating Levels of Luteinizing Hormone (LH)
The effect of compounds of the invention to inhibit luteinizing hormone (LH) secretion is determined by the following biological studies.
In humans and rodents, castration is well-precedented to permit heightened, persistent GnRH signaling and consequent elevation of circulating LH. Thus, a castrated rat model is used to provide a broad index for measurement of LH inhibition as a marker of test compound inhibition of the GnRH signaling pathway.
Castrated adult male Sprague-Dawley (SD) rats (150-175 g,) were purchased from Janvier (St Berthevin, France). All animals were housed 2 per cage in a temperature-controlled room (22±2° C.) and 50±5% relative humidity with a 12 hour/12 hour light/dark cycles (lights off at […]). The animals were allowed 3 weeks of postoperative recovery prior to study. Animals were handled on a daily basis. Standard diet and tap water were provided ad libitum. Animal cage litters were changed once a week. On the study day, animals were acclimated to the procedure room for a period of one hour prior to the initiation of the experiment.
Compounds of the invention were formulated in 0.5% methyl cellulose.
After basal sampling (TO) a single dose of compounds of the invention or vehicle was administrated orally to rats. Blood samples were then collected at several time points post dosing (45, 90, 150, 300 and 420 minutes). Blood samples were obtained via tail vein bleed, drawn into EDTA-containing tubes and centrifuged immediately. Plasma samples were collected and stored in a −80° C. freezer until assayed. Serum LH levels were determined using radioimmunoassay kit from RIAZEN—Rat L H, Zentech (Liege, Belgium). Baseline was defined as the initial basal blood sample.

A further data set has as its target human NK-1 receptor (Homo sapiens (Human), UniProt P25103). Description: Selectivity assay: [3H] substance P binding, human NK-1 receptor. Conditions: 2 nM [3H] substance P, CHO membranes; read-out: hNK-1 (Ki). In a few lines: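 Competition binding on membranes from CHO cells expressing human NK-1 receptor, using 2 nM [3H] substance P in 50 mM Tris/5 mM MnCl2/150 mM NaCl/0.1% BSA, pH 7.4, with increasing compound concentrations. Incubated 60 min at 25 °C; bound radioactivity measured after filtration.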

The next data set concerns plasma protein. Put plainly: Determination of plasma protein binding (equilibrium dialysis, RED). The class given is in vitro ADME. Conditions: 4 hours at 37° C.
The next data set concerns the target human NK-2 receptor (Homo sapiens (Human), UniProt P21452). Description: Selectivity assay: [125I]-Neurokinin A binding, human NK-2 receptor. The note with it: 0.1 nM [125I]-Neurokinin A, CHO membranes; read-out: hNK-2 (Ki). As to the method:
The affinity of compounds of the invention for the NK-2 receptor was evaluated in CHO recombinant cells which express the human NK-2 receptor. Membrane suspensions were prepared from these cells. […] Binding assays were performed in a 25 mM HEPES/1 mM CaCl2)/5 mM MgCl2/0.5% BSA/10 μg/ml saponin, at pH 7.4. […] The radioactivity retained on the filters was measured by using the TopCount-NXT reader (Packard).

[4] abbreviates: Table 2, 5 nM 3H-SB222200, CHO membranes, read-out: Competitive binding assay with human NK-3 receptor hNK-3 (Ki).
[5] abbreviates: Table 3 (selectivity table), read-out: hNK-3 (Ki).

Read-outs that look alike come from different tables or passages of the source.

Chain of human NK-1 receptor (P25103 whole entry): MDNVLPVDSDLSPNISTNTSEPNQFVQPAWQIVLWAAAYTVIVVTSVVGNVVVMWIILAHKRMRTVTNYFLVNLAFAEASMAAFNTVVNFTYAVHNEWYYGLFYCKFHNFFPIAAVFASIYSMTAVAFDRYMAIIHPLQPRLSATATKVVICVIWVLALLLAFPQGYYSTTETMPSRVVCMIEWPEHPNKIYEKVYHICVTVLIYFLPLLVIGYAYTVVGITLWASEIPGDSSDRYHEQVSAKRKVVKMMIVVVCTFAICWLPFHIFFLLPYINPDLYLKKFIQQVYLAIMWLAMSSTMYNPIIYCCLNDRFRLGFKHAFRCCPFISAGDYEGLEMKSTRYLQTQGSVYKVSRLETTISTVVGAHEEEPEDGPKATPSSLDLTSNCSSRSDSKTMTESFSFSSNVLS
T1 sequence (P29371 whole entry): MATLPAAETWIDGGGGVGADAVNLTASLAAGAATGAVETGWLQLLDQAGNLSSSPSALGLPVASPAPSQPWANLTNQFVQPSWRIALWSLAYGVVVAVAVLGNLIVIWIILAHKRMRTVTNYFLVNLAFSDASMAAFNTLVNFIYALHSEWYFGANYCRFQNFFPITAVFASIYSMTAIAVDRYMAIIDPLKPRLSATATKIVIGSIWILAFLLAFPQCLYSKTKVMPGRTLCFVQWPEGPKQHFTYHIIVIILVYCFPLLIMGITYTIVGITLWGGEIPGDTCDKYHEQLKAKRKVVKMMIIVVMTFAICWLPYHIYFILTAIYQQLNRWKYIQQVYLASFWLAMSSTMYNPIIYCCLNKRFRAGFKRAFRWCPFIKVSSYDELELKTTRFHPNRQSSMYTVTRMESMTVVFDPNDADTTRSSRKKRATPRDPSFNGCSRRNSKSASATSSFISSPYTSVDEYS
Chain of human NK-2 receptor (P21452 whole entry): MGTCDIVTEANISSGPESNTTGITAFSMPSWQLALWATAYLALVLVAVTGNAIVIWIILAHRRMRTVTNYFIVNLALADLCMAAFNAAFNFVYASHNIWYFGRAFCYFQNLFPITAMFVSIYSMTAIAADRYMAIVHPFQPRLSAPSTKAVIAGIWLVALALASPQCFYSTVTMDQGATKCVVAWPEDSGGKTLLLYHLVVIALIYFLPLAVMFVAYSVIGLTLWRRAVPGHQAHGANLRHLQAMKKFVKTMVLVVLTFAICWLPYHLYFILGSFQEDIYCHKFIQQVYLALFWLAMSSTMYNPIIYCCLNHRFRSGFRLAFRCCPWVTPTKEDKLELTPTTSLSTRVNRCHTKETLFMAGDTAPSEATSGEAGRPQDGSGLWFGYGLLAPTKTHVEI

For `CCc1noc(-c2nnc3n2CCN(C(=O)c2ccc(-c4cccs4)cc2)[C@@H]3C)n1` [Compound 30, (R)-(3-(3-ethyl-1,2,4-oxadiazol-5-yl)-8-methyl-5,6-dihydro-[1,2,4]triazolo[4,3-a]pyrazin-7(8H)-yl)(4-(thiophen-2-yl)phenyl)methanone], the values for the inhibition constant (Ki) at human NK-3 receptor [1] (setting [4]), at human NK-3 receptor [1] (setting [5]) and at human NK-1 receptor were 7 nM, 7 nM and 40000 nM, respectively. For the same compound, the half-maximal inhibitory concentration (IC50) at human NK-3 receptor [2] was 5 nM. Moreover, in data set [3], the “circulating LH levels” value was “significantly suppressed”. For the same compound, the “Exposure (% rPPB), bound drug fraction to plasma protein” value (shortened to “Exposure (% rPPB), bound drug fraction”) in the data set on plasma protein is on record as 94%.
With `Cc1nsc(-c2nnc3n2CCN(C(=O)c2ccccc2)[C@@H]3C)n1` [Compound 20, (R)-(8-methyl-3-(3-methyl-1,2,4-thiadiazol-5-yl)-5,6-dihydro-[1,2,4]triazolo[4,3-a]pyrazin-7(8H)-yl)(phenyl)methanone], the Ki at human NK-3 receptor [1] (setting [4]) is 60 nM; on human NK-3 receptor [1] (setting [5]) it was 60 nM; on human NK-2 receptor it was over 30000 nM; on human NK-1 receptor, over 30000 nM. The IC50 at human NK-3 receptor [2] amounted to 93 nM. In data set [3], the “circulating LH levels” value was “significantly suppressed”.
In the case of `Cc1nsc(-c2nnc3n2CCN(C(=O)c2ccc(F)c(F)c2)[C@@H]3C)n1` [Compound 9, (R)-(3,4-difluorophenyl)(8-methyl-3-(3-methyl-1,2,4-thiadiazol-5-yl)-5,6-dihydro-[1,2,4]triazolo[4,3-a]pyrazin-7(8H)-yl)methanone], the inhibition constant (Ki) was 30 nM on human NK-3 receptor [1] (setting [4]), 30 nM on human NK-3 receptor [1] (setting [5]), over 30000 nM on human NK-2 receptor and over 30000 nM at human NK-1 receptor. Besides, on human NK-3 receptor [2], the IC50 came to 21 nM. Further, the “circulating LH levels” value in data set [3] is recorded as “significantly suppressed”. The “Exposure (% rPPB), bound drug fraction” value with plasma protein is recorded as 22%.
For `Cc1nsc(-c2nnc3n2CCN(C(=O)c2ccc(Cl)c(F)c2)[C@@H]3C)n1` [Compound 4, (R)-(4-chloro-3-fluorophenyl)(8-methyl-3-(3-methyl-1,2,4-thiadiazol-5-yl)-5,6-dihydro-[1,2,4]triazolo[4,3-a]pyrazin-7(8H)-yl)methanone], the Ki at human NK-3 receptor [1] (setting [4]) worked out at 20 nM; at human NK-3 receptor [1] (setting [5]) it was 20 nM; on human NK-2 receptor, 23000 nM; on human NK-1 receptor, 19900 nM. The IC50 on human NK-3 receptor [2] stood at 19 nM. The “circulating LH levels” value in data set [3] was “significantly suppressed”. For the same compound, the “Exposure (% rPPB), bound drug fraction” value in the data set with plasma protein stood at 40%.
Regarding `CCc1nsc(-c2nnc3n2CCN(C(=O)c2ccc(F)cc2)[C@@H]3C)n1` [Compound 2, (R)-(3-(3-ethyl-1,2,4-thiadiazol-5-yl)-8-methyl-5,6-dihydro-[1,2,4]triazolo[4,3-a]pyrazin-7(8H)-yl)(4-fluorophenyl)methanone], the inhibitory constant (Ki) at human NK-3 receptor [1] (setting [4]) was 15 nM; at human NK-3 receptor [1] (setting [5]) it was 15 nM; at human NK-2 receptor, over 30000 nM; at human NK-1 receptor it was 23800 nM. Moreover, the half-maximal inhibitory concentration (IC50) on human NK-3 receptor [2] turned out to be 12 nM. In data set [3], the “circulating LH levels” value is given as “significantly suppressed”. For the same compound, in the data set on plasma protein, the “Exposure (% rPPB), bound drug fraction” value amounted to 47%.
Regarding `CCc1noc(-c2nnc3n2CCN(C(=O)c2ccc(F)cc2)[C@@H]3C)n1` [Compound 13, (R)-(3-(3-ethyl-1,2,4-oxadiazol-5-yl)-8-methyl-5,6-dihydro-[1,2,4]triazolo[4,3-a]pyrazin-7(8H)-yl)(4-fluorophenyl)methanone], the Ki is 40 nM on human NK-3 receptor [1] (setting [4]), 40 nM at human NK-3 receptor [1] (setting [5]), over 30000 nM at human NK-2 receptor and over 30000 nM at human NK-1 receptor. Moreover, on human NK-3 receptor [2], the IC50 was 44 nM. Moreover, in data set [3], the “circulating LH levels” value is reported as “significantly suppressed”. Moreover, in the data set with plasma protein, the “Exposure (% rPPB), bound drug fraction” value is 37%.
For `Cc1nsc(-c2nnc3n2CCN(C(=O)c2ccc(F)c(F)c2F)[C@@H]3C)n1` [Compound 8, (R)-(8-methyl-3-(3-methyl-1,2,4-thiadiazol-5-yl)-5,6-dihydro-[1,2,4]triazolo[4,3-a]pyrazin-7(8H)-yl)(2,3,4-trifluorophenyl)methanone], the Ki at human NK-3 receptor [1] (setting [4]) is 26 nM; at human NK-3 receptor [1] (setting [5]), 26 nM; on human NK-2 receptor it was over 30000 nM; on human NK-1 receptor, over 30000 nM. For the same compound, the half-inhibitory concentration (IC50) on human NK-3 receptor [2] came out at 33 nM. Moreover, the “circulating LH levels” value in data set [3] was “significantly suppressed”. Besides, the “Exposure (% rPPB), bound drug fraction” value in the data set with plasma protein is listed as 29%.
For `Cc1nsc(-c2nnc3n2CCN(C(=O)c2ccc(Cl)c(Cl)c2)[C@@H]3C)n1` [Compound 1, (R)-(3,4-dichlorophenyl)(8-methyl-3-(3-methyl-1,2,4-thiadiazol-5-yl)-5,6-dihydro-[1,2,4]triazolo[4,3-a]pyrazin-7(8H)-yl)methanone], the Ki at human NK-3 receptor [1] (setting [4]) was found to be 11 nM; at human NK-3 receptor [1] (setting [5]), 11 nM; on human NK-2 receptor, 7500 nM; at human NK-1 receptor it was 10300 nM. Further, on human NK-3 receptor [2], the IC50 was 16 nM. Besides, the “circulating LH levels” value in data set [3] is “significantly suppressed”. Moreover, the “Exposure (% rPPB), bound drug fraction” value in the data set with plasma protein is 67%.

One may read the Ki as the equilibrium dissociation constant of an inhibitor or competing ligand from its target. In general, IC50 refers to the point on the concentration scale where inhibition reaches its midpoint.
